Reference: ChEMBL document CHEMBL1131937 (Bioorg Med Chem Lett, 1999)

How the values were obtained:
[1] = target: T1, Adrenergic receptor alpha-2 (Rattus norvegicus, UniProt P22086+P19328+P22909); test: Inhibition of [3H]clonidine binding to the rat alpha-2-adrenoceptor; assay type: protein assay; parameters: Log Ki: unit not given here
T1 sequence (P22086 whole entry): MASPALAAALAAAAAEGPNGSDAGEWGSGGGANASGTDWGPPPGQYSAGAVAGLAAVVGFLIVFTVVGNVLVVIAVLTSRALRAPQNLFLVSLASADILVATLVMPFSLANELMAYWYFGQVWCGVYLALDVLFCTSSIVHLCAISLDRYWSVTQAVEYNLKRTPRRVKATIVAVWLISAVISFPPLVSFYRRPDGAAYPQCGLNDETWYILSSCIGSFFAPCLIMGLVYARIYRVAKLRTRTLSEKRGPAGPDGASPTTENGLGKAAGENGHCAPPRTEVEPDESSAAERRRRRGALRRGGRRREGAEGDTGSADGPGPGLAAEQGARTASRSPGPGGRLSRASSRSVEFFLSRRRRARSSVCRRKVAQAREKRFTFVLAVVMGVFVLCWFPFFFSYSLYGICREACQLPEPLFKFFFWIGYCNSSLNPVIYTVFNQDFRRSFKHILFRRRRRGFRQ
T1 sequence (P19328 whole entry): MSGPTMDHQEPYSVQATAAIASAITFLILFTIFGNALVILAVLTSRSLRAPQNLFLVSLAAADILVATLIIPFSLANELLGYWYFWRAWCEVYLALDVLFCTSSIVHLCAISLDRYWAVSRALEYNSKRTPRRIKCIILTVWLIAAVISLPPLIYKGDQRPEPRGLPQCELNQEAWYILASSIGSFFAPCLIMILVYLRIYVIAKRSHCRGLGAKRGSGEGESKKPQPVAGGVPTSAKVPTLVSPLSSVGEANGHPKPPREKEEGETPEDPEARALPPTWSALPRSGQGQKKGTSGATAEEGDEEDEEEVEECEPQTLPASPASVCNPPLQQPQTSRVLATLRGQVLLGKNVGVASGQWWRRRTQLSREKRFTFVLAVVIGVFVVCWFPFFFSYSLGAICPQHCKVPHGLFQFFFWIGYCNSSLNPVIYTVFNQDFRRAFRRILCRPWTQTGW
T1 sequence (P22909 whole entry): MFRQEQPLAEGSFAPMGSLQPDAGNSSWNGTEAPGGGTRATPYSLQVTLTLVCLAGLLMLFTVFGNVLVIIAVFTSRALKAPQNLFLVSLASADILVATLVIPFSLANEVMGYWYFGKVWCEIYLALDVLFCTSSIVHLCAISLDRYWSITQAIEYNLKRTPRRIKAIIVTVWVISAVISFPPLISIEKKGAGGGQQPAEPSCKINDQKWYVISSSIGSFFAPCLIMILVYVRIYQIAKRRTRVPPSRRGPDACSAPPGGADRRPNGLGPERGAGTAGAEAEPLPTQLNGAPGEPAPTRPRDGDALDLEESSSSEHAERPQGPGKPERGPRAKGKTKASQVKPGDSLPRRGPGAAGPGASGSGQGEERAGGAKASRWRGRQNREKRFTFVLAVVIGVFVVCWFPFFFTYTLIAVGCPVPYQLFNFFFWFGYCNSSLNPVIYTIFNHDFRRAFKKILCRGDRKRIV

[2] = Relative affinity for alpha-2-adrenoceptor and phenylethanolamine N-methyl-transferase (PNMT); parameters: reference not given here
[3] = target: T2, Phenylethanolamine N-methyltransferase (Bos taurus, UniProt P10938); test: Inhibitory activity against bovine adrenal phenylethanolamine N-methyl-transferase (PNMT)
T2 sequence (P10938 whole entry): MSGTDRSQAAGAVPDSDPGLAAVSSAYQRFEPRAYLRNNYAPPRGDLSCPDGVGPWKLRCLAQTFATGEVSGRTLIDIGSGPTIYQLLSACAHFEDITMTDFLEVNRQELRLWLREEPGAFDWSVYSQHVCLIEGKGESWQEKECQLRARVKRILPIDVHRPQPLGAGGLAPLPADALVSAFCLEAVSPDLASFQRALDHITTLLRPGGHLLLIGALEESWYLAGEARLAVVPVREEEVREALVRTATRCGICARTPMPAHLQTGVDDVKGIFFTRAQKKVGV

Row | SMILES | Log Ki [1] | Ki [3] [µM] | also measured
1 | CS(=O)(=O)c1ccc2c(c1)CNC(C(F)(F)F)C2 (stereo unspecified) | – | – | Ki [1]: 3900 µM; Selectivity [2]: 110
2 | COc1cccc2c1CCNC2 | 6.89 | – | –
3 | NCc1cccc2ccccc12 | 5.79 | – | –
4 | C[C@@H]1Cc2sc3ccccc3c2CN1 | – | – | Selectivity [2]: 0.08
5 | Ic1ccc2c(c1)CNCC2 | 6.66 | – | –
6 | Cc1ccc2c(c1)CNCC2 | 6.44 | 2.69 | –
7 | c1ccc2c(c1)CCCNC2 | 4.97 | – | –
8 | C[C@H]1Cc2ccc(Cl)c(Cl)c2CN1 | 6.37 | 0.912 | –
9 | C[C@H](N)c1ccccc1 | 3.92 | – | –
10 | CN1CCc2ccccc2C1 | 6.62 | 50.1 | –
11 | C[C@@H]1Cc2ccc([N+](=O)[O-])cc2CN1 | 4.28 | – | –
12 | C=CCS(=O)(=O)c1ccc2c(c1)CNCC2 | 4.02 | – | –
13 | Clc1ccc2c(c1Cl)CNCCC2 | 5.39 | – | –
14 | O=[N+]([O-])c1cc2c(c([N+](=O)[O-])c1)CCCNC2 | 4.6 | 36.3 | –
15 | COc1cccc2c1CNCC2 | 6.52 | – | –
16 | Oc1ccc2c3c(ccc2c1)CCNC3 | 7.1 | – | –
17 | OC[C@H]1Cc2ccc(Cl)c(Cl)c2CN1 | – | – | Selectivity [2]: 0.32
18 | Oc1cc2c(cc1O)CNCC2 | 6.32 | 3.89 | –
19 | c1ccc2c(c1)CCNC2 [1,2,3,4-TETRAHYDROISOQUINOLINE] | 6.45 | – | –
20 | COC(=O)c1ccc2c(c1)CNCC2 | 5.34 | – | –
21 | O=[N+]([O-])c1ccc2c(c1)CNCCC2 | 4.18 | 0.389 | –

Row | SMILES | Log Ki [1] | Ki [3] [µM] | also measured
22 | FC(F)(F)[C@H]1Cc2ccc(Br)cc2CN1 | – | – | Selectivity [2]: 0.83
23 | COc1ccc2c3c(ccc2c1)CCNC3 | – | 14.1 | –
24 | O=C(c1ccccc1)c1ccc2c(c1)CNCC2 | 4.57 | – | –
25 | C[C@H](N)c1ccc(Cl)c(Cl)c1 | 4.44 | 5.01 | –
26 | C[C@@H](N)c1ccccc1 | 3.54 | – | –
27 | OC[C@@H]1Cc2ccc(Cl)c(Cl)c2CN1 | – | – | Selectivity [2]: 2.1
28 | Brc1ccc2c(c1)CNCC2 | – | 0.295 | –
29 | N#Cc1ccc2c(c1)CNC(C(F)(F)F)C2 (stereo unspecified) | – | – | Ki [1]: 2900 µM; Selectivity [2]: 220
30 | C[C@@H]1Cc2ccc(Cl)c(Cl)c2CN1 | 6.66 | 0.355 | –
31 | N#Cc1ccc2c(c1)CN[C@H](C(F)(F)F)C2 | – | – | Selectivity [2]: 1.4
32 | O=S(=O)(c1ccccc1)c1ccc2c(c1)CNCC2 | 4.67 | – | –
33 | CSc1ccc2c(c1)CNCC2 | 6.39 | 0.617 | –
34 | COC(=O)Nc1ccc2c(c1)CNCC2 | 5.04 | 186 | –
35 | N#Cc1ccc2c(c1)CN[C@@H](C(F)(F)F)C2 | – | – | Selectivity [2]: 15
36 | C[C@H]1CCc2ccc(Cl)c(Cl)c2CN1 | 5.36 | 5.75 | –
37 | NS(=O)(=O)c1ccc2c(c1)CN[C@@H](C(F)(F)F)C2 | – | – | Selectivity [2]: 61
38 | C[C@@H]1Cc2ccccc2CN1 | 5.24 | – | –
39 | O=[N+]([O-])c1ccc2c(c1)CNCCCC2 | 4.08 | 4.57 | –
40 | CS(=O)(=O)c1ccc2c(c1)CN[C@@H](C(F)(F)F)C2 | – | – | Selectivity [2]: 190
41 | C[C@@H]1CCc2ccc(Cl)c(Cl)c2CN1 | 5.56 | 0.417 | –
42 | OC[C@@H]1Cc2ccccc2CN1 | 4.77 | – | –

Row | SMILES | Log Ki [1] | Ki [3] [µM] | also measured
43 | C[C@H]1Cc2ccccc2CN1 | 6.31 | – | –
44 | N#Cc1ccc2c(c1)CNCC2 | 5.14 | – | –
45 | Oc1cccc2c1CCNC2 | 6.11 | – | –
46 | NC(=O)c1ccc2c(c1)CNCC2 | 4.64 | – | –
47 | CN1CCCCc2ccccc2C1 | 5.39 | 1150 | –
48 | c1ccc(Cc2ccc3c(c2)CNCC3)cc1 | 5.33 | 61.7 | –
49 | NS(=O)(=O)c1ccc2c(c1)CNCCC2 | 3.82 | 1.66 | –
50 | OCc1ccc2c(c1)CNCC2 | 5.64 | – | –
51 | O=C(O)c1ccc2c(c1)CNCC2 | 3.33 | – | –
52 | c1ccc2c(c1)CCCCNC2 | 4.81 | – | –
53 | Nc1ccc2c(c1)CNCC2 | 5.51 | – | –
54 | Brc1ccc2c(c1)CNCCC2 | 5.05 | 0.288 | –
55 | FC(F)(F)[C@@H]1Cc2ccc(Br)cc2CN1 | – | – | Selectivity [2]: 2.6
56 | C[C@H]1Cc2ccc([N+](=O)[O-])cc2CN1 | 4.72 | – | –
57 | Oc1cccc2c1CNCC2 | 6.14 | 603 | –
58 | Nc1ccc2c(c1)CNCCC2 | 3.96 | 24 | –
59 | FC(F)(F)c1ccc2c(c1)CNCC2 | 5.89 | 0.182 | –
60 | Clc1ccc2c(c1Cl)CNCC2 | 7.66 | – | –
61 | CNS(=O)(=O)c1ccc2c(c1)CNCC2 | 3.88 | – | –
62 | O=C(c1ccc2c(c1)CNCC2)C(F)(F)F | 4.49 | – | –
63 | Oc1ccc2c(c1)CCNC2 | 6 | 5.75 | –

Row | SMILES | Log Ki [1] | Ki [3] [µM] | also measured
64 | CS(=O)(=O)c1ccc2c(c1)CN[C@H](C(F)(F)F)C2 | – | – | Selectivity [2]: 22
65 | CC1Cc2sc3ccccc3c2CN1 (stereo unspecified) | – | – | Selectivity [2]: 1.3
66 | OCC1Cc2ccc(Cl)c(Cl)c2CN1 (stereo unspecified) | – | – | Selectivity [2]: 0.39
67 | Oc1ccc2c(c1)CNCC2 | 5.65 | – | –
68 | CS(=O)(=O)c1ccc2c(c1)CNCCC2 | 3.82 | 7.76 | –
69 | NS(=O)(=O)c1ccc2c(c1)CNC(CO)C2 (stereo unspecified) | – | – | Selectivity [2]: 290
70 | O=[N+]([O-])c1ccc2c(c1)CN[C@H](C(F)(F)F)C2 | – | – | Selectivity [2]: 25
71 | CC(=O)c1ccc2c(c1)CNCC2 | 5.21 | – | –
72 | C[C@@H](N)c1ccc(Cl)c(Cl)c1 | 4.39 | 32.4 | –
73 | FC(F)(F)[C@H]1Cc2ccccc2CN1 | – | – | Selectivity [2]: 0.05
74 | O=S(=O)(c1ccc2c(c1)CNCC2)C(Cl)(Cl)Cl | 4.47 | 1.26 | –
75 | c1ccc2c(c1)CNCCN2 | 5.58 | – | –
76 | COc1ccc(OC)c2c1CCNC2 | 6.25 | 1000 | –
77 | O=[N+]([O-])c1ccc2c(c1)CN[C@@H](C(F)(F)F)C2 | – | – | Selectivity [2]: 240
78 | NCc1ccc2c(c1)CNCC2 | 4.92 | – | –
79 | COc1ccc2c(c1)CNCC2 | 6.33 | – | –
80 | O=[N+]([O-])c1cc2c(c([N+](=O)[O-])c1)CCNC2 | 4.11 | 57.5 | –
81 | CSc1ccc2c(c1)CNCCC2 | 4.92 | 1.05 | –
82 | OC[C@H]1Cc2ccccc2CN1 | 5.36 | – | –
